In patent publication US20040038958A1, “Topical treatment of skin diseases” (priority 2002, published 2004):
Entries after “also recorded” stand apart in the source; their conditions may differ.

Assays:
mice sensitized to TDI = test: Mouse ear swelling test in mice sensitized to toluene-2,4-diisocyanate (TDI), topical application; format: in vivo, BALB/c-mice; settings: for TDI-induced ear swelling: AWD 12-281 1%, cilomilast 3%, diflorasone 0.05%
Experimental: FIG. 6: Effect of PDE 4 inhibitors on TDI induced ear swelling in mice. […] After 1 h (grey bars) groups of mice were treated with 3% AWD 12-281, 10% cilomilast or left untreated (TDI). After 24 h, ear swelling was determined (black bars). […] Female BALB/c-mice were obtained from Charles River (Sulzfeld, Germany) at the age of 8 weeks (20 g body weight). All animals were healthy and were housed in groups of six mice per cage at 22° C. with a 12-h light/dark-cycle. Water and a standard diet (Altromin, […], Germany) were available ad libitum. After settling in for 1 week, the abdominal skin of the mice was shaved and depilated with Veet®. Subsequently, the horny layers of the abdominal skin were stripped off ten times with adhesive tapes. […] Before as well as 24 h after challenge, the ear thickness was measured with a cutimeter (model 7309, Mitutoyo, Neuss, Germany) The swelling was calculated by comparison of the values before challenge with 24 h after challenge. […] The other mice were equally distributed to the treatment groups (n=6) according to their swelling intensity, so that each group contained animals which had responded to varying extents. They had to rest until the ear thickness had reached almost a normal level after 7 days. To exclude residues of the allergen on the ears, the untreated right ears were used for the main experiment. One group of mice (n=6) was not sensitized and challenged. […] Two hours before TDI-challenge, the third and fourth group (each n=6) were treated with 20 μl (10 μl on both, the inner and outer surface) AWD 12-281 (1%=200 μg) or 20 μl cilomilast (3%=600 μg; each in acetone/DMSO 9:1) to the right ears. […] These mice were sacrificed by cervical dislocation 24 hours after TDI challenge and the ears were collected (see below). […] Five weeks after the first challenge, the animals treated with AWD 12-281 (1%) and cilomilast (3%) “therapeutically” were challenged again. Before challenge, one group was treated with AWD 12-281 (3%).

IL-4 = settings: Griswold et al., 1998; cited from earlier work
interleukin 4 = test: IL-4 in homogenized mouse ears after TDI challenge (ELISA); format: in vivo, BALB/c-mice; settings: 24 h after TDI challenge, cilomilast 3%, diflorasone 0.05%; for concentration of interleukin 4 in homogenized mouse ears: topical 2 h before challenge, AWD 12-281 1%; for IL-4, mean inhibition (%) of the TDI induced synthesis: AWD 12-281 3%
Experimental: (§1) One part of the collected ears was fixed in 4% formaldehyde for histological section and stained with haematoxylin-eosin with respect to dermal thickness and granulocyte accumulation. These parameters were measured in 10 fields at 40 times magnification. The remaining tissue was shock-frozen and stored in liquid nitrogen immediately after sampling. For the determination of biochemical parameters, the mice ears were homogenized under liquid nitrogen. The homogenates were taken in 200 μl RPMI 1640 medium and the protease inhibitor Pefabloc® (1 mmol) was added and the samples were mixed intensively. After centrifugation (10000 g, 10 min, 4° C.), the supernatant was collected and the protein content was determined. The samples were stored at −80° C. until the cytokines were determined. Interleukin (IL) 4, IL-6 and MIP-2 were measured in the samples by ELISA using commercially available kits according to manufacturers instructions.

[1] = system: macrophage inflammatory protein 2; test: MIP-2 in homogenized mouse ears after TDI challenge (ELISA); format: in vivo, BALB/c-mice; settings: 24 h after TDI challenge, cilomilast 3%, diflorasone 0.05%; for concentration of macrophage inflammatory protein 2 in homogenized mouse ears: topical 2 h before challenge, AWD 12-281 1%; for MIP-2, mean inhibition (%) of the TDI induced synthesis: AWD 12-281 3%
Experimental: as §1

[2] = system: chronic obstructive pulmonary disease; settings: Phase II/III clinical trials; Giembycz, 2001, Dyke & Montana, 2002; cited from earlier work
interleukin 6 = test: IL-6 in homogenized mouse ears after TDI challenge (ELISA); format: in vivo, BALB/c-mice; settings: 24 h after TDI challenge, cilomilast 3%, diflorasone 0.05%; for concentration of interleukin 6 in homogenized mouse ears: topical 2 h before challenge, AWD 12-281 1%; for IL-6, mean inhibition (%) of the TDI induced synthesis: AWD 12-281 3%
Experimental: as §1

[3] = system: granulocyte influx in the dermis of mice ears; test: Histological examination of mouse ear skin after TDI challenge; format: in vivo, BALB/c-mice; settings: mouse ear skin 24 h after TDI challenge; topical treatment
Experimental: as §1

[4] = single topical application 2 h before TDI challenge, 1, 5 and 24 h after challenge
[5] = topical 1 h after TDI challenge (therapeutic), 24 h after challenge

| IL-4, mean inhibition (%) of the TDI induced synthesis (interleukin 4) | MIP-2, mean inhibition (%) of the TDI induced synthesis [1] | IL-6, mean inhibition (%) of the TDI induced synthesis (interleukin 6) | SMILES | TDI-induced ear swelling (mice sensitized to TDI; [4]) | TDI-induced ear swelling (mice sensitized to TDI; [5]) | TDI-induced ear swelling (mice sensitized to TDI; topical 1 h after TDI challenge (therapeutic), 24 h after challenge, listed as Cilomilast) | TDI induced ear swelling (mice sensitized to TDI; treated 1 h after 0.5% TDI, 3% AWD 12-281, 10% cilomilast, ear swelling after 24 h (FIG. 6)) | IL-4 in vivo (IL-4) | concentration of interleukin 4 in homogenized mouse ears (interleukin 4) | concentration of interleukin 4 in homogenized mouse ears (interleukin 4; listed as Cilomilast) | concentration of macrophage inflammatory protein 2 in homogenized mouse ears [1] | concentration of macrophage inflammatory protein 2 in homogenized mouse ears ([1]; listed as Cilomilast) | lung function [2] | concentration of interleukin 6 in homogenized mouse ears (interleukin 6) | concentration of interleukin 6 in homogenized mouse ears (interleukin 6; listed as Cilomilast) | edema and influx of inflammatory cells (mainly granulocytes) [3] |
| --- | --- | --- | --- | --- | --- | --- | --- | --- | --- | --- | --- | --- | --- | --- | --- | --- |
| 74% | 66% | 49% | COc1ccc([C@]2(C#N)CC[C@@H](C(=O)O)CC2)cc1OC1CCCC1 [cilomilast] | inhibited the TDI-induced swelling significantly at all measured times | lacks significant inhibitory effects; also recorded: failed to do so | no significant inhibition; also recorded: slight, but not significant reduction of the swelling | did not show a significant inhibitory effect | inhibit IL-4 in vivo | inhibited the increase significantly | reduced the concentration of all mediators significantly | diminished the increase of the MIP-2 concentration significantly | reduced the concentration of all mediators significantly | clinically significant increase in lung function | inhibited this response significantly | reduced the concentration of all mediators significantly | inhibited these inflammatory processes markedly |
| 50% | 76% | 52% | CC(=O)OCC(=O)[C@@]1(OC(C)=O)[C@@H](C)C[C@H]2[C@@H]3C[C@H](F)C4=CC(=O)C=C[C@]4(C)[C@@]3(F)[C@@H](O)C[C@@]21C [diflorasone, reference compound] | inhibited the TDI-induced swelling significantly at all measured times | inhibited the TDI induced ear swelling significantly | – | – | – | reduced the concentration of all mediators significantly; also recorded: inhibited the increase significantly | – | reduced the concentration of all mediators significantly; also recorded: diminished the increase of the MIP-2 concentration significantly | – | – | reduced the concentration of all mediators significantly; also recorded: inhibited this response significantly | – | inhibited these inflammatory processes markedly |
